Results published in PMC9675719, “Expedient Synthesis of a Library of Heparan Sulfate‐Like “Head‐to‐Tail” Linked Multimers for Structure and Activity Relationship Studies” (Angewandte Chemie (International Ed. in English), 2022).
Like-named read-outs stand apart in the source and are kept apart here.

Columns and labels:
[1] = target: T1, FGF-2 (Homo sapiens, UniProt P09038); assay: Competition SPR assay: inhibition of FGF-2 interaction with immobilized biotinylated heparin; format: binding; conditions: for IC50: immobilized biotinylated heparin, FGF-2 50 nM, read-out: IC50 (amount of mimetic needed to reduce the FGF-2 binding by 50 %)
T1 sequence (P09038 134-288 limits assumed, species assumed): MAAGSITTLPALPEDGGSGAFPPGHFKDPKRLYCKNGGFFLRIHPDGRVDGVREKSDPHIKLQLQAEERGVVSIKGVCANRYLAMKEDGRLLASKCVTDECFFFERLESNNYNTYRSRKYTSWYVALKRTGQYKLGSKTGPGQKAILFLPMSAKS
Experimental: A competition SPR assay was performed to establish the SAR between the full panel of 27 HS‐like pseudo‐hexasaccharides and FGF‐2 (Figure 4). Biotinylated heparin was immobilized on the biosensor, and the pseudo‐hexasaccharides (10 μM) were mixed with FGF‐2 (50 nM) individually. […] The trend of 33, 33 z and 33 m in the order of decreasing FGF‐2 affinity is consistent with that observed in the direct binding SPR study (Figures 3 and S1). The IC50 values of several disaccharides and pseudo‐tetrasaccharides with FGF‐2 have also been measured. The disaccharides bound weakly with FGF‐2, and the fully sulfated pseudo‐tetrasaccharide gave the strongest binding among the pseudo‐tetrasaccharides tested, which in turn was much weaker than that of the pseudo‐hexasaccharide 33 (Figure S2).
Figure 4 Inhibition of 27 pseudo‐hexasaccharides (33, 33 a–z) on FGF‐2 interaction with heparin through a competition SPR assay. Biotinylated heparin was immobilized on the SPR biosensor. For the control well, FGF‐2 (50 nM) was flown over the sensor and the intensity of the signal due to FGF‐2 binding was set as a reference (100 %). […] Normalized FGF‐2 binding % was calculated based on the following formula: (signal intensity of FGF‐2/pseudo‐hexasaccharide)/(signal intensity of FGF‐2 only)×100 %. […]
FGF-2 was immobilized on sensor chip by primary amine coupling reaction. […] Solutions of various concentrations of pseudo-hexasaccharides 33, 33z, and 33m dissolved in 0.01% Tween 20 PBS buffer were injected over the FGF-2 chip at a flow rate of 30 µL/min, and the responses to binding were recorded .
Aqueous NaCl solution (2.0 M) was employed for regeneration to achieve baseline status after each run. Sensorgrams were evaluated using the Qdat program. […] The KD values were calculated by the Qdat software. […]
Heparin SPR chip was prepared by immobilizing biotinylated heparin on SA sensor chip (Cytiva, Uppsala, Sweden).[13] […] Normalized FGF - 2 binding % was calculated based on the following formula: (signal intensity o f FGF-2/pseudohexasaccharide)/(signal intensity of FGF -2 only) x 100%. […]

[2] = target: T1, FGF-2; assay: Direct binding SPR with FGF-2 immobilized on CDH sensor chip
Experimental: The direct binding of FGF‐2 to the HS mimetics was measured by surface plasmon resonance (SPR). FGF‐2 was immobilized on a carboxymethyl dextran high capacity (CDH) sensor chip surface through carbodiimide mediated coupling. O‐/N‐Sulfated (33), O‐sulfated (33 z) and N‐sulfated (33 m) pseudo‐hexasaccharides were selected as analytes in addition to the heparin polysaccharide (MW: 17.2 kDa). […] Seeberger and co‐workers studied the binding of HS hexasaccharides with FGF‐2 through a powerful glycan microarray technology.[36] […] The N‐acetylated, O‐sulfated hexasaccharide 35 gave binding of ≈20 % of that of heparin, while the hexasaccharide 36 having three N‐sulfates only gave the lowest signal (<2%) binding to FGF‐2. The trend of decreasing FGF‐2 affinity from N‐ and O‐sulfated, to O‐sulfated only, to N‐sulfated only sequences of HS hexasaccharides (34, 35, 36) correlates well with those of the pseudo‐hexasaccharides 33, 33 z, and 33 m.
Figure 3 a) The SPR sensorgram of FGF‐2 binding with compound 33. The concentrations of 33 from top to bottom curves were 750 nM, 500 nM, 250 nM, 100 nM, 10 nM, and 1 nM. Each experiment was repeated at least three times with the representative data shown. The vertical line indicates the time when the dissociation process started. b) Table of K D values determined for 33, 33 z, and 33 m through the FGF‐2 SPR binding assay. c) Structures of compounds 35–38.
Measurements of binding constants of pseudo-hexasaccharides 33, 33z, and 33m with FGF-2 […]
FGF-2 was immobilized on sensor chip by primary amine coupling reaction. The surface of a CDH sensor chip (FortéBio, Inc., Molecular Devices, USA) was activated using freshly mixed N-hydroxysuccimide (NHS; 0.05 M) and 1-(3-(dimethylamino)propyl)-ethylcarbodiimide (EDC; 0.2 M) (1/1,v/v) in water, followed by the injection of FGF -2 (50 µg/ml) in PBS buffer. The remaining active esters were quenched by ethanolamine (1.0 M). Solutions of various concentrations of pseudo-hexasaccharides 33, 33z, and 33m dissolved in 0.01% Tween 20 PBS buffer were injected over the FGF-2 chip at a flow rate of 30 µL/min, and the responses to binding were recorded .
Aqueous NaCl solution (2.0 M) was employed for regeneration to achieve baseline status after each run. Sensorgrams were evaluated using the Qdat program. The response data due to association and dissociation were processed in Qdat using a reference surface to correct for any bulk refractive index changes and blank injections for double referencing . The binding profiles were fit globally into a 1:2 interaction model. The KD values were calculated by the Qdat software.
Analysis of the inhibition of pseudo-hexasaccharides on heparin/FGF-2 interaction using […]

[3] = target: T1, FGF-2; parameters: method as in PMID 17066397; conditions: glycan microarray, glycan concentration 16 μM; cited from earlier work
[4] = target: T1, FGF-2; parameters: method as in PMID 28651046, PMID 24959968; conditions: read-out: KD of FGF-2 binding; cited from earlier work
[5] = immobilized FGF-2, 1:2 interaction model, read-out: dissociation constant (KD) of binding to FGF-2

CC(=O)NCCO[C@@H]1O[C@@H](C(=O)O)[C@@H](O[C@H]2O[C@H](COS(=O)(=O)O)[C@@H](OCCC(=O)NCCO[C@@H]3O[C@@H](C(=O)O)[C@@H](O[C@H]4O[C@H](COS(=O)(=O)O)[C@@H](OCCC(=O)NCCO[C@@H]5O[C@@H](C(=O)O)[C@@H](O[C@H]6O[C@H](COS(=O)(=O)O)[C@@H](OCCC(=O)O)[C@H](O)[C@H]6NC(C)=O)[C@H](O)[C@H]5OS(=O)(=O)O)[C@H](O)[C@H]4NC(C)=O)[C@H](O)[C@H]3OS(=O)(=O)O)[C@H](O)[C@H]2NC(C)=O)[C@H](O)[C@H]1OS(=O)(=O)O [33 z]
IC50 [1]: ~100 µM | Kd [2, 5]: 0.94 µM

CC(=O)NCCO[C@@H]1O[C@@H](C(=O)O)[C@@H](O[C@H]2O[C@H](COS(=O)(=O)O)[C@@H](OCCC(=O)NCCO[C@@H]3O[C@@H](C(=O)O)[C@@H](O[C@H]4O[C@H](COS(=O)(=O)O)[C@@H](OCCC(=O)NCCO[C@@H]5O[C@@H](C(=O)O)[C@@H](O[C@H]6O[C@H](COS(=O)(=O)O)[C@@H](OCCC(=O)O)[C@H](O)[C@H]6NS(=O)(=O)O)[C@H](O)[C@H]5OS(=O)(=O)O)[C@H](O)[C@H]4NS(=O)(=O)O)[C@H](O)[C@H]3OS(=O)(=O)O)[C@H](O)[C@H]2NS(=O)(=O)O)[C@H](O)[C@H]1OS(=O)(=O)O [compound 33]
IC50 [1]: 1.7 µM | Kd [2, 5]: 0.0196 µM

NCCCCCO[C@@H]1O[C@@H](C(=O)O)[C@@H](O[C@H]2O[C@H](CO)[C@@H](O[C@@H]3O[C@@H](C(=O)O)[C@@H](O[C@H]4O[C@H](CO)[C@@H](O[C@@H]5O[C@@H](C(=O)O)[C@@H](O[C@H]6O[C@H](CO)[C@@H](O)[C@H](O)[C@H]6NS(=O)(=O)O)[C@H](O)[C@H]5O)[C@H](O)[C@H]4NS(=O)(=O)O)[C@H](O)[C@H]3O)[C@H](O)[C@H]2NS(=O)(=O)O)[C@H](O)[C@H]1O [compound 36]
binding to FGF-2 as compared to heparin polysaccharide [3]: < 2%

CO[C@@H]1O[C@@H](C(=O)O)[C@@H](O[C@H]2O[C@H](COS(=O)(=O)O)[C@@H](O)[C@H](O)[C@H]2NS(=O)(=O)O)[C@H](O)[C@H]1OS(=O)(=O)O [compound 37]
Kd [4]: 17.5 µM

CC(=O)N[C@H]1[C@@H](O[C@H]2[C@H](O)[C@@H](OS(=O)(=O)O)[C@H](OCCCCCN)O[C@H]2C(=O)O)O[C@H](COS(=O)(=O)O)[C@@H](O[C@@H]2O[C@@H](C(=O)O)[C@@H](O[C@H]3O[C@H](COS(=O)(=O)O)[C@@H](O[C@@H]4O[C@@H](C(=O)O)[C@@H](O[C@H]5O[C@H](COS(=O)(=O)O)[C@@H](O)[C@H](O)[C@H]5NC(C)=O)[C@H](O)[C@H]4OS(=O)(=O)O)[C@H](O)[C@H]3NC(C)=O)[C@H](O)[C@H]2OS(=O)(=O)O)[C@@H]1O [compound 35]
binding to FGF-2 as compared to heparin polysaccharide [3]: ≈ 20%

NCCS(=O)(=O)CCCCCO[C@@H]1O[C@@H](C(=O)O)[C@@H](O[C@H]2O[C@H](COS(=O)(=O)O)[C@@H](O[C@@H]3O[C@@H](C(=O)O)[C@@H](O[C@H]4O[C@H](COS(=O)(=O)O)[C@@H](O[C@@H]5O[C@@H](C(=O)O)[C@@H](O[C@H]6O[C@H](COS(=O)(=O)O)[C@@H](O)[C@H](O)[C@H]6NS(=O)(=O)O)[C@H](O)[C@H]5OS(=O)(=O)O)[C@H](O)[C@H]4NS(=O)(=O)O)[C@H](O)[C@H]3OS(=O)(=O)O)[C@H](O)[C@H]2NS(=O)(=O)O)[C@H](O)[C@H]1OS(=O)(=O)O [compound 34]
binding to FGF-2 as compared to heparin polysaccharide [3]: ≈ 60%

CC(=O)NCCO[C@@H]1O[C@@H](C(=O)O)[C@@H](O[C@H]2O[C@H](CO)[C@@H](OCCC(=O)NCCO[C@@H]3O[C@@H](C(=O)O)[C@@H](O[C@H]4O[C@H](CO)[C@@H](OCCC(=O)NCCO[C@@H]5O[C@@H](C(=O)O)[C@@H](O[C@H]6O[C@H](CO)[C@@H](OCCC(=O)O)[C@H](O)[C@H]6NS(=O)(=O)O)[C@H](O)[C@H]5O)[C@H](O)[C@H]4NS(=O)(=O)O)[C@H](O)[C@H]3O)[C@H](O)[C@H]2NS(=O)(=O)O)[C@H](O)[C@H]1O [33 m]
inhibition of FGF-2/heparin interaction (in words) ([1]; under the experimental condition): did not exhibit any inhibition | binding to FGF-2 (in words) ([2]; immobilized FGF-2, at 3 μM): little binding | Kd ([2]; immobilized FGF-2, value printed in μM under head KD value (nM), read-out: KD value): > 3 µM

NCCCCCO[C@H]1O[C@H](COS(=O)(=O)O)[C@@H](O[C@@H]2O[C@@H](C(=O)O)[C@@H](O[C@H]3O[C@H](COS(=O)(=O)O)[C@@H](O[C@@H]4O[C@@H](C(=O)O)[C@@H](O)[C@H](O)[C@H]4O)[C@H](O)[C@H]3NS(=O)(=O)O)[C@H](O)[C@H]2OS(=O)(=O)O)[C@H](O)[C@H]1NS(=O)(=O)O [compound 38]
Kd [4]: 1.2 µM
